Measurements as given in patent publication US6420317B1, “Benzoylpyrazoles and their use as herbicides” (Aventis CropScience GmbH, priority 2000, dated 2002).

Tests used:
Experiment in all cases: Post-emergence herbicidal action on harmful plants (greenhouse)
Assay type in all cases: in vivo
Conditions in all cases: 50 g a.i./ha, visual scoring after about 3 to 4 weeks
Chenopodium album = tested on: Chenopodium album
Protocol: (§1) 1. Post-emergence herbicidal action on harmful plants
(§2) Seeds of monocotyledonous and dicotyledonous harmful plants are placed in sandy loam soil in cardboard pots, covered with soil and grown in a greenhouse under good growth conditions. Two to three weeks after sowing, the test plants are treated at the three-leaf stage. The compounds according to the invention which were formulated as wettable powders or emulsion concentrate are sprayed, at one of the dosages given in Tables 1 to 5, onto the surface of the green parts of the plants at an application rate of from 600 to 800 1 of water/ha (converted). After the test plants had remained in the greenhouse for about 3 to 4 weeks under optimum growth conditions, the effect of the preparations is scored visually by comparison with compounds disclosed in the prior art. As shown by the results of Comparative Tables 1 to 4, the selected compounds according to the invention have better herbicidal activity against a broad spectrum of economically important monocotyledonous and dicotyledonous harmful plants than the compounds disclosed in the prior art.

Polygonum convolvulus = tested on: Polygonum convolvulus
Protocol: as §1, §2

Stellaria media = tested on: Stellaria media
Protocol: as §1, §2

Cc1nn(C)c(O)c1C(=O)c1ccc(S(C)(=O)=O)cc1 [Compound S2] was tested, and the “Damage to the harmful plants in % CHEAL” value (Chenopodium album) was 0%, the “Damage to the harmful plants in % POLCO” value (Polygonum convolvulus) was 10% and the “Damage to the harmful plants in % STEME” value (Stellaria media) was 10%.
